PubChem BioAssay (NCI)
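48-hour exposure; five concentrations; linearly interpolated endpoints. TGI is the concentration that stops growth completely.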

How the values were obtained:
Assay in all cases: DTP human tumour cell line panel, 48 h
[1] = system: A549 NSCLC
[2] = system: BT-549 breast
[3] = system: HOP-62 NSCLC
[4] = system: HT29 colon
[5] = system: MDA-MB-435
[6] = system: NCI/ADR-RES ovarian
[7] = system: RPMI-8226 leukemia
[8] = system: SF-268 CNS
[9] = system: SK-MEL-28 melanoma
[10] = system: HL-60(TB) leukemia

## CC(=O)OC1C(C)OC(OC2C[C@](O)(C(C)=O)Cc3c(O)c4c(c(O)c32)C(=O)c2ccccc2C4=O)C(F)C1OC(C)=O (stereo not given in full)
[1]
  TGI: 2.17 µM
[2]
  TGI: 33.2 µM
[3]
  TGI: 13.8 µM
[4]
  TGI: > 100 µM
[5]
  TGI: 23.5 µM
[6]
  TGI: 9.46 µM
[7]
  TGI: 2.14 µM
[8]
  TGI: 24.6 µM
[9]
  TGI: > 31.3 µM

## O=C1CSC(c2cccc(Oc3ccccc3)c2)N1c1cc(Cl)ccc1Cl (stereo not given)
[1]
  TGI: > 100 µM
[2]
  TGI: 35.6 µM
[10]
  TGI: > 100 µM
[3]
  TGI: 47.1 µM
[4]
  TGI: 50.5 µM
[5]
  TGI: 40.2 µM
[6]
  TGI: 77.4 µM
[8]
  TGI: 39.5 µM
[9]
  TGI: > 100 µM

## C[C@@H](c1ccccc1)N(CC#N)[C@H]1CCC[C@]1(O)/C=C/c1ccc2c(c1)OCO2
[1]
  TGI: > 25 µM
[10]
  TGI: > 25 µM
[3]
  TGI: > 25 µM
[4]
  TGI: > 25 µM
[5]
  TGI: > 25 µM
[6]
  TGI: > 25 µM
[7]
  TGI: > 25 µM
[8]
  TGI: > 25 µM
[9]
  TGI: > 25 µM

## CCCCSC1=N/C(=C\c2ccccc2O)C(Cl)=N1
[1]
  TGI: > 100 µM
[2]
  TGI: > 100 µM
[10]
  TGI: > 100 µM
[3]
  TGI: > 100 µM
[4]
  TGI: > 100 µM
[5]
  TGI: > 100 µM
[6]
  TGI: > 100 µM
[7]
  TGI: > 100 µM
[8]
  TGI: > 100 µM
[9]
  TGI: > 100 µM

## CCOP(=O)(OCC)/C(C#N)=C(\C)c1ccco1
[1]
  TGI: > 10 µM
[2]
  TGI: > 10 µM
[10]
  TGI: > 10 µM
[3]
  TGI: > 10 µM
[4]
  TGI: > 10 µM
[5]
  TGI: > 10 µM
[6]
  TGI: > 10 µM
[7]
  TGI: > 10 µM
[8]
  TGI: > 10 µM
[9]
  TGI: > 10 µM

## Nc1nc(Nc2cc(F)c(Cl)c(F)c2)cc(=O)[nH]1
[1]
  TGI: > 100 µM
[2]
  TGI: > 100 µM
[10]
  TGI: > 100 µM
[3]
  TGI: > 100 µM
[4]
  TGI: > 100 µM
[5]
  TGI: > 100 µM
[6]
  TGI: > 100 µM
[7]
  TGI: > 100 µM
[8]
  TGI: > 100 µM
[9]
  TGI: > 100 µM

## CC(C)[C@H](NC(=O)OCc1ccccc1)C(=O)N[C@H](/C=C/C(=O)OC(C)(C)C)CO
[1]
  TGI: > 100 µM
[10]
  TGI: > 100 µM
[3]
  TGI: > 100 µM
[4]
  TGI: > 100 µM
[5]
  TGI: > 100 µM
[6]
  TGI: > 100 µM
[8]
  TGI: > 100 µM
[9]
  TGI: > 100 µM

## O=C(NCc1ccc(Cl)c(Cl)c1)c1nc2ccccc2nc1NCc1ccc(Cl)c(Cl)c1
[1]
  TGI: > 100 µM
[2]
  TGI: > 100 µM
[10]
  TGI: > 100 µM
[3]
  TGI: > 100 µM
[4]
  TGI: > 100 µM
[5]
  TGI: > 100 µM
[6]
  TGI: > 100 µM
[8]
  TGI: > 100 µM
[9]
  TGI: > 100 µM

## O=CC12CCCN1CCC2
[1]
  TGI: > 100 µM
[2]
  TGI: > 100 µM
[3]
  TGI: > 100 µM
[4]
  TGI: > 100 µM
[5]
  TGI: > 100 µM
[6]
  TGI: > 100 µM
[9]
  TGI: > 100 µM

## CSC(=NCCCN=C(NS(=O)(=O)c1ccc(Cl)cc1)SC)NS(=O)(=O)c1ccc(Cl)cc1
[10]
  TGI: 47.1 µM
[3]
  TGI: > 100 µM
[4]
  TGI: > 100 µM
[5]
  TGI: > 100 µM
[6]
  TGI: > 100 µM
[7]
  TGI: > 100 µM
[8]
  TGI: > 100 µM
[9]
  TGI: > 100 µM

## NS(=O)(=O)C1CCCCC1C(=O)NNC(=O)C(=O)Nc1nc(=S)[nH][nH]1 (stereo not given)
[1]
  TGI: > 100 µM
[10]
  TGI: > 100 µM
[3]
  TGI: > 100 µM
[4]
  TGI: > 100 µM
[7]
  TGI: > 100 µM
[8]
  TGI: > 100 µM
[9]
  TGI: > 100 µM

## NS(=O)(=O)c1cc2c(cc1Cl)NC(C(=O)NNC(=O)c1ccncc1)=NS2(=O)=O
[1]
  TGI: > 100 µM
[10]
  TGI: > 100 µM
[3]
  TGI: > 100 µM
[4]
  TGI: > 100 µM
[8]
  TGI: > 100 µM
[9]
  TGI: > 100 µM

## O=C(c1ccccc1)n1c2ccc(Br)cc2c2nc3ccccc3nc21
[2]
  TGI: > 100 µM
[10]
  TGI: > 100 µM
[3]
  TGI: > 100 µM
[4]
  TGI: > 100 µM
[5]
  TGI: > 100 µM
[6]
  TGI: > 100 µM
[7]
  TGI: > 100 µM
[8]
  TGI: > 100 µM
[9]
  TGI: > 100 µM

## CCOC(=O)N/N=C(/N)Cc1ccc(Cl)cc1
[1]
  TGI: > 100 µM
[2]
  TGI: > 100 µM
[3]
  TGI: > 100 µM
[4]
  TGI: > 100 µM
[5]
  TGI: > 100 µM
[6]
  TGI: > 100 µM
[7]
  TGI: > 100 µM
[8]
  TGI: > 100 µM
[9]
  TGI: > 100 µM

## Cc1ccc(C)c(C(=O)CC2OC(O)C(Cl)C2Cl)c1 (stereo not given)
[1]
  TGI: > 100 µM
[10]
  TGI: 95.7 µM
[3]
  TGI: > 100 µM
[4]
  TGI: > 100 µM
[7]
  TGI: > 100 µM
[8]
  TGI: > 100 µM
[9]
  TGI: > 100 µM

## CO[C@@H](c1ccccc1)[C@H](O)[C@@](O)(c1ccccc1)P(=O)(OC)OC
[1]
  TGI: > 100 µM
[2]
  TGI: > 100 µM
[10]
  TGI: > 100 µM
[4]
  TGI: > 100 µM
[5]
  TGI: > 100 µM
[6]
  TGI: > 100 µM
[7]
  TGI: > 100 µM
[8]
  TGI: > 100 µM
[9]
  TGI: > 100 µM

## O=[N+]([O-])c1cccc2c1[nH]c1c(-c3ccccc3)nccc12
[1]
  TGI: > 42.5 µM
[10]
  TGI: 4.35 µM
[3]
  TGI: 5.04 µM
[4]
  TGI: 10.4 µM
[6]
  TGI: 4.44 µM
[7]
  TGI: > 100 µM
[8]
  TGI: > 100 µM
[9]
  TGI: 21.9 µM

## Oc1[nH]c2ccccc2c1N=Nc1nc(-c2ccccc2)cs1
[1]
  TGI: > 100 µM
[3]
  TGI: 66.4 µM
[4]
  TGI: > 100 µM
[5]
  TGI: > 100 µM
[6]
  TGI: 83 µM
[9]
  TGI: > 100 µM

## COc1ccc(NC(=S)Nc2cccc(C)n2)cc1
[2]
  TGI: > 100 µM
[10]
  TGI: > 100 µM
[3]
  TGI: 64.3 µM
[4]
  TGI: > 100 µM
[5]
  TGI: > 100 µM
[6]
  TGI: > 100 µM
[7]
  TGI: > 100 µM
[8]
  TGI: > 100 µM
[9]
  TGI: > 100 µM

## O=P1(C(O)c2ccccc2)N(Cc2ccccc2)[C@@H]2CCCC[C@H]2N1Cc1ccccc1 (stereo not given in full)
[1]
  TGI: > 100 µM
[2]
  TGI: > 100 µM
[10]
  TGI: 47.2 µM
[3]
  TGI: > 100 µM
[4]
  TGI: 46.3 µM
[5]
  TGI: 71 µM
[6]
  TGI: > 100 µM
[8]
  TGI: 97.1 µM
[9]
  TGI: > 100 µM

## C/C(=C\CNc1ncnc2c1ncn2CCC#N)CO
[1]
  TGI: > 100 µM
[10]
  TGI: > 100 µM
[3]
  TGI: > 100 µM
[4]
  TGI: > 100 µM
[5]
  TGI: > 100 µM
[6]
  TGI: > 100 µM
[7]
  TGI: > 100 µM
[8]
  TGI: > 100 µM
[9]
  TGI: > 100 µM

## O=C1Cc2c([nH]c3c(Br)cccc23)-c2ccccc2N1
[1]
  TGI: > 100 µM
[2]
  TGI: > 100 µM
[10]
  TGI: 73.8 µM
[3]
  TGI: > 100 µM
[4]
  TGI: > 100 µM
[5]
  TGI: > 100 µM
[6]
  TGI: > 100 µM
[7]
  TGI: > 100 µM
[8]
  TGI: > 100 µM

## Cc1cc(NS(=O)(=O)c2ccc(NC(NC(=O)OC(C)C)(C(F)(F)F)C(F)(F)F)cc2)nc(C)n1
[1]
  TGI: > 100 µM
[10]
  TGI: > 100 µM
[3]
  TGI: > 100 µM
[4]
  TGI: > 100 µM
[5]
  TGI: > 100 µM
[6]
  TGI: > 100 µM
[7]
  TGI: > 100 µM
[8]
  TGI: > 100 µM
[9]
  TGI: > 100 µM
